Data taken from US11969459B2, “Therapeutic agent for cardiomyopathy, old myocardial infarction and chronic heart failure” (StemRIM Inc., priority 2017, dated 2024).

Legend:
[1] = system: Dahl salt-sensitive rats (DIS/Eis rats); test: Efficacy evaluation in hypertensive cardiomyopathy model (Example 4); assay type: in vivo, rat; conditions: High-1-44 vs High-PBS group
Source text: The Dahl salt-sensitive rats (hereafter also referred to as DIS/Eis rats) were used in the experiments. DIS/Eis rats are hypertensive when fed with a high-salt diet and are a model that develop heart failure at a high incidence (e.g., when fed with a diet supplemented with 8% NaCl from 6 weeks of age, blood pressure reaches 250 mm Hg at 9 weeks of age, death begin to appear from 12 weeks of age, and death is highly probable by 16 weeks of age).
Ten DIS/Eis rats (6-weeks-old, male, body weight about 200 g, Japan SLC) were prepared and divided into two groups, a high-salinity diet group (n=7) and a low-salinity diet group (n=3), and feeding was continued until 15 weeks of age in which the former was fed with a diet supplemented with 8% NaCl and the latter was fed with a diet supplemented with 0.3% NaCl. Aside from the meals, nothing interfered with free movement and they were kept clean and rested without restriction on drinking water, feeding, and such in their cages.
At 11 weeks of age, the high-salinity diet group (n=7) was divided into the HMGB1 peptide (1-44)-treated group (n=3) and the control group (n=4), and treatment was initiated. Administration of the test substance was carried out by injecting a solution of the HMGB1 peptide (1-44), which has been adjusted to a concentration of 1 mg/ml with PBS as the vehicle, into the tail vein at a dose of 3 ml/kg (3 mg/kg as the peptide dosage) once daily for four consecutive days. The control group was injected with PBS at a dose of 3 ml/kg once a day via the tail vein for four consecutive days. Similar to the control group, the low-salinity diet group (n=3) also received PBS via the tail vein for four consecutive days. At 4 weeks after dosing (at 15 weeks, of age), hearts were removed from the rats by thoracotomy under general anesthesia, and their weight was measured, and then histological sections of the left ventricular myocardial cross sections were prepared at the papillary muscle level and subjected to histological analysis. In the following description, the HMGB1 peptide (1-44) administration group fed with a high-salinity diet is abbreviated as the “High-1-44 group”; the control group fed with a high-salinity diet is abbreviated as the “High-PBS group” and the low-salinity diet group is abbreviated as the “Low-PBS group”.
At 15 weeks of age, hearts were removed from rats in each group and weighed. […]
Myocardial tissue sections were stained with Sirius red, and the proportion of stain-positive area in the area of the whole heart or the left ventricle was calculated as the percentage of fibrosis (%).

[2] = system: old myocardial infarction model rats; test: Efficacy evaluation in old myocardial infarction model rats (Example 3); assay type: in vivo, SD rats
Experimental: SD rats (7-week-old, male, body weight of approximately 250 g) were anesthetized with the inhalation anesthetic sevofrane (or isoflurane) and intubated endotracheally after adequate suppression was achieved, and deep anesthesia was maintained with the inhalation anesthetic. A thoracotomy was performed in the supine position at the left fourth intercostal space, and the proximal portion of the left anterior descending coronary artery was ligated with 6-0 prolene sutures to create a broad-area myocardial infarction model. The cardiac function was evaluated by echocardiography 2 weeks after the infarction was made, and cases in which extensive infarction was obtained (LVEF<50%) were used as old myocardial infarction model rats (17 animals in total). Similar to the above examples, the HMGB1 peptide (1-44) consisting of SEQ ID NO: 1 was used.
The old myocardial infarction model rats were divided into the HMGB1 peptide (1-44)-treated group (n=9) and the PBS-treated group (control, n=8), and treatment was begun 2 weeks after the infarction was made. Administration of the test substance was carried out by injecting a solution of the HMGB1 peptide (1-44), which has been adjusted to a concentration of 1 mg/ml with PBS as vehicle, into the femoral veins at a dose of 3 ml/kg (3 mg/kg as the peptide dosage) once daily for four consecutive days. In the control group, PBS was injected at a dose of 3 ml/kg once a day via the femoral vein for four consecutive days. At 4 weeks after dosing, the heart was removed by re-thoracotomy under deep anesthesia. […] Both groups were comparatively studied using cardiac physiological, histopathological, and molecular biological techniques to evaluate the effects of administering the HMGB1 peptide (1-44). The condition after 2 weeks (14 days) or more have passed following the onset of myocardial infarction in model rats is equivalent to the condition after 30 days or more have passed following the onset of myocardial infarction in humans.
(§1) Echocardiography was performed at 1, 2, and 4 weeks after dosing, and the left ventricular end-diastolic diameter (LVDd), left ventricular end-systolic diameter (LVDs), and left ventricular ejection fraction (LVEF) were measured and calculated to perform a cardiac function assessment.
Myocardial tissue sections were stained with Sirius red, and the proportion of stain-positive area in the total area of the left ventricular myocardium was calculated as the percentage of fibrosis (%).
Von-Willebrand factors were stained at the infarct border to determine the number of blood vessels (number of vascular endothelial cells). This measurement was performed in 10 different fields and the mean value was calculated.
Periodic Acid Schiff (PAS) staining was performed at the infarct border, and the short diameter of cardiomyocytes retaining a nuclear architecture at the infarct border was measured, and the average of the measurements was obtained. This measurement was performed in 10 different fields and the mean value was calculated.
Staining of the nuclei was performed using DAPI.

[3] = system: J2N-k hamsters; test: Efficacy evaluation in dilated cardiomyopathy model (Example 1); assay type: in vivo, hamster
Source text: J2N-k hamsters (18-week-old, male, 20 animals in total), which are model animals of dilated cardiomyopathy, were obtained from Japan SLC, acclimated for 2 weeks, and then used for experiments. J2N-k hamsters spontaneously develop dilated cardiomyopathy due to deletion mutations in the […] gene (specifically, cardiomyocyte shedding and fibrosis begin around 5 weeks of age, cardiomegaly and cardiac dysfunction appear at approximately 20 weeks of age, and eventually they die of congestive heart failure at approximately 1 year. J Biochem. 2003 August; 134(2):269-76). Also, a peptide consisting of amino acid residues 1-44 (SEQ ID NO: 1) of the human HMGB1 protein was chemically synthesized by a solid-phase method. Hereinafter, the peptide is referred to as the HMGB1 peptide (1-44), and is abbreviated as “1-44” in the drawing corresponding to the Examples.
J2N-k hamsters were divided into the HMGB1 peptide (1-44)-treated (n=10) and PBS-treated (control, n=10) groups, and treatment was begun at 20 weeks of age (body weight about 120 g). Administration of the test substance was carried out by injecting a solution of the HMGB1 peptide (1-44), which has been adjusted to a concentration of 1 mg/ml with PBS as the vehicle, into the external jugular vein at a dose of 3 ml/kg (3 mg/kg as the peptide dosage) once a day for four consecutive days. In the control group, PBS was injected into the external jugular vein at a dose of 3 ml/kg once a day for four consecutive days. At 6 weeks after administration, a thoracotomy was performed under deep anesthesia, and the heart was removed. The mid portion of the heart was divided for cryopreservation and for paraffin fixation, and a histopathological examination was performed. Molecular biological studies were also performed using apical myocardium to evaluate effects of administration of the HMGB1 peptide (1-44).
as §1, with “performed prior to dosing, and” for “performed”, “4” for “1, 2,”, “6” for “4”, “dosing;” for “dosing,”, “and” for “and the”, “assessment. […]” for “assessment.”
Periodic Acid Schiff (PAS) staining of the myocardial tissue sections was performed to measure the short diameter of cardiomyocytes retaining a nuclear architecture, and the average of the measurements was obtained. This measurement was performed in five different fields and the mean value was calculated.
Immunostaining of the myocardial tissue sections was performed using antibodies against PDGFRα and CD29, which are surface markers of mesenchymal stem cells, to assess whether accumulation of mesenchymal stem cells was observed. Staining of the nuclei was performed using DAPI. […]
The structure of cardiomyocytes was observed by electron microscopy. Specifically, the full-thickness myocardium of the mid-portion was sampled, and subjected to pre-fixation with ½ Karnofsky, post-fixation with 2% osmium tetroxide, block-staining with 0.5% uranium acetate aqueous solution and dehydration with ethanol, and then embedded and polymerized by infiltrating epoxy resin (Queto1812). Ultrathin sections (70-110 nm) were made, and electron staining with uranium acetate and a lead stain solution was performed, and then observed by electron microscopy (H-7500, Hitachi High Technologies).

[4] = system: J2N-k hamsters; test: Efficacy evaluation in dilated cardiomyopathy model, long-term observations (Example 2); assay type: in vivo, hamster; conditions: vs PBS group
Experimental: As in Example 1, twenty J2N-k hamsters were prepared and divided into the HMGB1 peptide (1-44)-treated group (n=11) and the PBS-treated group (control, n=9), and treatment was begun at 20 weeks of age. Administration of the test substance was carried out by injecting a solution of the HMGB1 peptide (1-44), which has been adjusted to a concentration of 1 mg/ml with PBS as the vehicle, into the external jugular vein at a dose of 3 ml/kg (3 mg/kg as the peptide dosage) once daily for four consecutive days. In the control group, PBS was injected into the external jugular vein at a dose of 3 ml/kg once a day for four consecutive days. Evaluation of the cardiac function and survival rate was continued thereafter while rearing the hamsters under normal conditions.
Echocardiography was performed prior to dosing, at 4 weeks after dosing, and every 2 weeks thereafter to measure LVEF.
After the last dose, the animals were kept under normal conditions and the survival rate was evaluated.

[5] = 4 weeks after dosing, vs PBS group
[6] = immunostaining of myocardial tissue
[7] = infarct border, vs PBS group, P=0.05
[8] = 4 and 6 weeks after dosing, 3 mg/kg i.v. x4 days, vs PBS group
[9] = apical myocardium, vs PBS group

## HMGB1 peptide (1-44): peptide consisting of amino acid residues 1-44 (SEQ ID NO: 1) of the human HMGB1 protein, chemically synthesized by a solid-phase method (MGKGDPKKPRGKMSSYAFFVQTCREEHKKKHPDASVNFSEFSKK)
[1]; 15 weeks of age
  end-diastolic left ventricular anterior wall thickness (LVAWd): smaller
[1]; 15 weeks of age, high-salinity diet, 3 mg/kg tail vein once daily for four days from 11 weeks of age
  heart weight: smaller heart weights
[1]; left ventricle
  percentage of fibrosis in the left ventricle: smaller
[1]; whole heart
  percentage of Sirius red-stained positive area (percentage of fibrosis) in the whole heart: smaller
[2]; 4 weeks after dosing, 3 mg/kg femoral vein once daily for four days, begun 2 weeks after infarction, vs PBS group
  left ventricular ejection fraction (LVEF): significantly higher
[2]; [5]
  left ventricular end-diastolic diameter (LVDd): smaller values
  left ventricular end-systolic diameter (LVDs): smaller values
[2]; [6]
  recruitment of cells positive for both PDGFRα and CD90 near the infarct border: recruited
  recruitment of cells positive for both PDGFRα and CD105 near the infarct border: recruited
[2]; immunostaining, vs PBS group
  PDGFRα-positive and CD90-positive cells in the vicinity of the infarct border: more
[2]; [7]
  number of vessels at the infarct border (von-Willebrand factor staining): significantly more vessels
  short diameter of cardiomyocytes at the infarct border (PAS staining): significantly smaller
[2]; left ventricular myocardium, 4 weeks after dosing, vs PBS group
  percentage of Sirius red stain-positive area (myocardial fibrosis): significantly smaller
[2]; up to 4 weeks after dosing
  average improvement in LVEF with respect to before the dosing: about 7%
[3]; [8]
  left ventricular end-diastolic diameter (LVDd): no significant differences
  left ventricular end-systolic diameter (LVDs): no significant differences
[3]; [9]
  TSG-6 expression level (RT-PCR): significantly higher
  VEGF expression level (RT-PCR): significantly higher
[3]; both subendocardial layer and mid layer, 6 weeks after administration, vs PBS group
  short diameter of cardiomyocytes (PAS staining): significantly smaller
[3]; echocardiography 4 and 6 weeks after dosing, 3 mg/kg external jugular vein once a day for four days, compared with PBS group
  left ventricular ejection fraction (LVEF): significantly higher
[3]; immunostaining of myocardial tissue sections
  recruitment of cells positive for both PDGFRα and CD29 to the myocardial tissue: recruited
[3]; immunostaining, vs PBS group
  number of PDGFRα-positive and CD29-positive cells in the myocardial tissue: significantly more
[3]; loss of cristae structure in PBS group
  mitochondrial cristae structure of cardiomyocytes (electron microscopy): cristae structure was maintained
[3]; mid layer, 6 weeks after administration, vs PBS group
  number of blood vessels (anti-CD31 immunostaining), mid layer: significantly higher
[3]; myocardial tissue sections 6 weeks after administration, vs PBS group
  percentage of Sirius red stain-positive area (myocardial fibrosis): significantly smaller
[3]; subendocardial layer, 6 weeks after administration, vs PBS group
  number of blood vessels (anti-CD31 immunostaining), subendocardial layer: tended to be higher
[4]; long-term observations
  survival rate (viability): tendency toward higher viability
[4]; until 6 weeks after administration, 3 mg/kg i.v. x4 days
  LVEF, long-term: remained significantly higher
